Source: patent publication US6339046B1, “Pyrazde herbicides” (Syngenta Investment Corporation, priority 1996, dated 2002)

Key:
[1] = tested on: Stellaria; assay: Pre-emergence herbicidal action (Example B1); assay type: in vivo; set-up: key: 1=complete damage; 9=no action; Score figures of 1 to 4 (in particular 1 to 3) denote a good to very good herbicidal action; conditions: 500 g of a.i./ha, sprayed immediately after sowing, evaluated after 3 weeks, nine-step scale (1=complete damage, 9=no action)
Experimental: (§1) Herbicidal Action Before Emergence of the Plants (Pre-emergence Action)
(§2) Monocotyledoneous and dicotyledoneous test plants are grown in standard soil in plastic pots. Immediately after sowing, the test substances are sprayed on in the form of an aqueous suspension or emulsion, prepared from a 25% emulsion concentrate (Example F1, c)), which corresponds to a dosage of 500 g of a.i./ha (500 l of water/ha). The test plants are subsequently grown in the greenhouse under optimal conditions. After a test period of 3 weeks, the experiment is evaluated on a nine-step scale (1=complete damage, 9=no action). Score figures of 1 to 4 (in particular 1 to 3) denote a good to very good herbicidal action.
(§3) Test plants: Avena, Setaria, Solanum, Stellaria, Ipomoea.

[2] = tested on: Solanum; assay: Pre-emergence herbicidal action (Example B1); assay type: in vivo; set-up: key: 1=complete damage; 9=no action; Score figures of 1 to 4 (in particular 1 to 3) denote a good to very good herbicidal action; conditions: 500 g of a.i./ha, sprayed immediately after sowing, evaluated after 3 weeks, nine-step scale (1=complete damage, 9=no action)
Experimental: as §1, §2, §3

[3] = tested on: Setaria; assay: Pre-emergence herbicidal action (Example B1); assay type: in vivo; set-up: key: 1=complete damage; 9=no action; Score figures of 1 to 4 (in particular 1 to 3) denote a good to very good herbicidal action; conditions: 500 g of a.i./ha, sprayed immediately after sowing, evaluated after 3 weeks, nine-step scale (1=complete damage, 9=no action)
Experimental: as §1, §2, §3

[4] = tested on: Ipomoea; assay: Pre-emergence herbicidal action (Example B1); assay type: in vivo; conditions: 500 g of a.i./ha, sprayed immediately after sowing, evaluated after 3 weeks, nine-step scale (1=complete damage, 9=no action)
Experimental: as §1, §2, §3

[5] = tested on: Avena; assay: Pre-emergence herbicidal action (Example B1); assay type: in vivo; conditions: 500 g of a.i./ha, sprayed immediately after sowing, evaluated after 3 weeks, nine-step scale (1=complete damage, 9=no action)
Experimental: as §1, §2, §3

[6] = tested on: Ipomoea; assay: Post-emergence herbicidal action (Example B2); assay type: in vivo; set-up: key: 1=complete damage; 9=no action; Score figures of 1 to 4 (in particular 1 to 3) denote a good to very good herbicidal action; conditions: 500 g of a.i./ha, sprayed in the 4- to 6-leaf stage, evaluated after approximately 18 days, nine-step scale (1=complete damage, 9=no action)
Experimental: (§4) Post-emergence Herbicidal Action
(§5) In the greenhouse, monocotyledoneous and dicotyledoneous test plants are grown in standard soil in plastic pots and, in the 4- to 6-leaf stage, sprayed with an aqueous suspension or emulsion of the test substances of the formula I, prepared from a 25% emulsion concentrate (Example F1, c)), which corresponds to a dosage of 500 g of a.i./ha (500 l of water/ha). The test plants are subsequently grown on in the greenhouse under optimal conditions. After a test period of approximately 18 days, the experiment is evaluated on a nine-step scale (1=complete damage, 9=no action). Score figures of 1 to 4 (in particular 1 to 3) denote a good to very good herbicidal action.
(§6) Test plants: Setaria, Sinapis, Solanum, Stellaria, Ipomoea.

[7] = tested on: Stellaria; assay: Post-emergence herbicidal action (Example B2); assay type: in vivo; set-up: key: 1=complete damage; 9=no action; Score figures of 1 to 4 (in particular 1 to 3) denote a good to very good herbicidal action; conditions: 500 g of a.i./ha, sprayed in the 4- to 6-leaf stage, evaluated after approximately 18 days, nine-step scale (1=complete damage, 9=no action)
Experimental: as §4, §5, §6

[8] = tested on: Solanum; assay: Post-emergence herbicidal action (Example B2); assay type: in vivo; set-up: key: 1=complete damage; 9=no action; Score figures of 1 to 4 (in particular 1 to 3) denote a good to very good herbicidal action; conditions: 500 g of a.i./ha, sprayed in the 4- to 6-leaf stage, evaluated after approximately 18 days, nine-step scale (1=complete damage, 9=no action)
Experimental: as §4, §5, §6

[9] = tested on: Sinapis; assay: Post-emergence herbicidal action (Example B2); assay type: in vivo; set-up: key: 1=complete damage; 9=no action; Score figures of 1 to 4 (in particular 1 to 3) denote a good to very good herbicidal action; conditions: 500 g of a.i./ha, sprayed in the 4- to 6-leaf stage, evaluated after approximately 18 days, nine-step scale (1=complete damage, 9=no action)
Experimental: as §4, §5, §6

[10] = tested on: Setaria; assay: Post-emergence herbicidal action (Example B2); assay type: in vivo; set-up: key: nine-step scale: 1 = complete damage, 9 = no action; conditions: 500 g of a.i./ha, sprayed in the 4- to 6-leaf stage, evaluated after approximately 18 days, nine-step scale (1=complete damage, 9=no action)
Experimental: as §4, §5, §6

Row | SMILES | melting point [°C] | Pre-emergence action, score, test plant Stellaria [1] | Pre-emergence action, score, test plant Solanum [2] | Pre-emergence action, score, test plant Setaria [3] | Pre-emergence action, score, test plant Ipomoea [4] | Pre-emergence action, score, test plant Avena [5] | Post-emergence action, score, test plant Ipomoea [6] | Post-emergence action, score, test plant Stellaria [7] | Post-emergence action, score, test plant Solanum [8] | Post-emergence action, score, test plant Sinapis [9] | Post-emergence action, score, test plant Setaria [10]
1 | C#CCOc1cc(-c2nn(C)c(C#N)c2C)c(Cl)cc1Cl [Comp. No. I3.027, 3-(2,4-dichloro-5-propargyloxyphenyl)-4-methyl-5-cyano-1-methyl-[1H]-pyrazole] | 256 to 257 | 2 | 1 | 1 | 6 | 6 |  |  |  |  | 
2 | Cc1c(-c2cc(O)c(Cl)cc2Cl)nn(C)c1C#N [Comp. No. I36.103, 3-(2,4-dichloro-5-hydroxyphenyl)-4-methyl-5-cyano-1-methyl-[1H]-pyrazole] | 263 to 265 |  |  |  |  |  |  |  |  |  | 
3 | Cc1c(-c2ccc(Cl)cc2F)nn(C)c1C#N [I1, 001] |  |  |  |  |  |  | 1 | 5 | 2 | 4 | 3
4 | COc1cc(-c2nn(C)c(C#N)c2C)c(F)cc1Cl [I1, 006] |  |  |  |  |  |  | 1 | 3 | 1 | 3 | 2
5 | C#CCOc1cc(-c2nn(C)c(C#N)c2C)c(F)cc1Cl [I1, 027] |  |  |  |  |  |  | 1 | 1 | 1 | 3 | 3
6 | Cc1c(-c2cc(CC(Cl)C(=O)OCc3ccccc3)c(Cl)cc2F)nn(C)c1C#N (centres unmarked) [I1, 122] |  |  |  |  |  |  | 1 | 1 | 1 | 1 | 4
7 | Cc1c(-c2cc(C(=O)O)c(Cl)cc2F)nn(C)c1C#N [I1, 130] |  |  |  |  |  |  | 1 | 1 | 1 | 1 | 3
8 | COC(=O)c1cc(-c2nn(C)c(C#N)c2C)c(F)cc1Cl [I1, 134] |  |  |  |  |  |  | 1 | 1 | 1 | 3 | 5
9 | Cc1c(-c2cc(C(=O)OC(C)C)c(Cl)cc2F)nn(C)c1C#N [I1, 140] |  |  |  |  |  |  | 1 | 1 | 1 | 4 | 2
10 | Cc1c(-c2cc(C(=O)OC(C)(C)C(=O)O)c(Cl)cc2F)nn(C)c1C#N [I1, 151] |  |  |  |  |  |  | 1 | 1 |  | 1 | 3
11 | Cc1c(-c2ccc(Cl)cc2F)nn(C)c1C#N [I1.001] | 152 to 153 | 6 | 1 | 1 | 3 | 4 |  |  |  |  | 
12 | COc1cc(-c2nn(C)c(C#N)c2C)c(F)cc1Cl [I1.006] |  | 1 | 1 | 1 | 4 | 4 |  |  |  |  | 
13 | C#CCOc1cc(-c2nn(C)c(C#N)c2C)c(F)cc1Cl [I1.027] | 145 to 146 | 1 | 1 | 2 | 4 | 3 |  |  |  |  | 
14 | Cc1c(-c2cc(C(=O)OC(C)C)c(Cl)cc2F)nn(C)c1C#N [I1.140] |  | 1 | 2 | 1 | 4 | 3 |  |  |  |  | 
15 | C#CCOc1cc(-c2nn(C)c(C#N)c2C)c(Cl)cc1Cl [I3, 027] |  |  |  |  |  |  | 3 | 3 | 1 | 3 | 6
16 | Cc1c(-c2ccc(Cl)cc2F)nn(C)c1C(N)=S [I5, 001] |  |  |  |  |  |  | 1 | 7 | 1 | 7 | 6
17 | Cc1c(-c2ccc(Cl)cc2F)nn(C)c1C(N)=S [I5.001] |  | 7 | 1 | 1 | 6 | 6 |  |  |  |  | 
